Source: patent US11793803B2, “Particle and pharmaceutical composition comprising an insoluble camptothecin compound with double core-shell structure and method for manufacturing the same” (SN BIOSCIENCE INC., priority 2017, dated 2023)
≈ marks a conversion by molar mass, not a printed value.

Assay: Solubility in different solvents (supersaturated solution, filtrate analysed by HPLC)
Settings: for solubility at 30 min: thermodynamic from solid
Method: A supersaturated solution was prepared by adding 20 mg of the hydrophobic camptothecin compound (camptothecin or SN-38) to 5 ml of ethanol, acetonitrile, acetone, ethyl acetate, chloroform dimethyl sulfoxide, or distilled water, followed by ultrasonic treatment for 30 minutes. The prepared supersaturated solution was filtered through a 0.45-μm filter, and a filtrate was properly diluted, followed by HPLC analysis.
The prepared supersaturated solution was filtered through a 0.45-μm filter, and a filtrate was properly diluted, followed by HPLC analysis.
HPLC (Agilent 1200 Series, USA) conditions were as follows. The column was CapcellPak C8 (5 m, 4.6 mm×25 cm, Shiseido); the mobile phase was a mixed solvent of methanol:acetonitrile:buffer (2.8 g/L sodium dihydrogenphosphate, 1.8 g/L 1-octanesulfonate aqueous solution)=17:24:59 (v/v); the flow rate was 1.5 mL/min; the measurement wavelength was UV 255 nm; and the sample injection amount was 15 μL.

Compound	solubility at 30 min (acetonitrile, organic solvent or mixture)	solubility at 30 min (chloroform, organic solvent or mixture)	solubility at 30 min (dimethyl sulfoxide, organic solvent or mixture)	solubility at 30 min (distilled water, water)	solubility at 30 min (ethanol, organic solvent or mixture)	solubility at 30 min (ethyl acetate, organic solvent or mixture)	Solubility of hydrophobic camptothecin-based compound (Acetonitrile)	Solubility of hydrophobic camptothecin-based compound (Chloroform)	Solubility of hydrophobic camptothecin-based compound (Dimethyl sulfoxide)	Solubility of hydrophobic camptothecin-based compound (Distilled water)	Solubility of hydrophobic camptothecin-based compound (Ethanol)	Solubility of hydrophobic camptothecin-based compound (Ethyl acetate)
CC[C@@]1(O)C(=O)OCc2c1cc1n(c2=O)Cc2cc3ccccc3nc2-1 [Camptothecin, camptothecin]	101 µg/mL (≈ 290 µM)	2 µg/mL (≈ 5.74 µM)	3290 µg/mL (≈ 9450 µM)	9 µg/mL (≈ 25.8 µM)	149 µg/mL (≈ 428 µM)	134 µg/mL (≈ 385 µM)						
CCc1c2c(nc3ccc(O)cc13)-c1cc3c(c(=O)n1C2)COC(=O)[C@]3(O)CC [SN-38, 7-ethyl-10-hydroxy-camptothecin]							402 µg/mL	9 µg/mL	2263 µg/mL	<1 µg/mL	779 µg/mL	78 µg/mL
